In patent US10174024B2, “5H-pyrido[3,2-B]indole compounds as anticancer agents” (BRISTOL-MYERS SQUIBB COMPANY, priority 2015, dated 2019):
pIC50: −log10 of the molar value.

Biological target: BRD4 (Homo sapiens, UniProt O60885)
Test: Time Resolved Fluorescence Resonance Energy Transfer (TR-FRET) binding assay, FRET BRD4
Settings: one of the FRET assays described (BRD4 bromodomain construct not specified); read-out: FRET BRD4 IC50

Structure (SMILES) | pIC50
[2H]C([2H])([2H])c1nnn(C)c1-c1cnc2c3ccc(N4CCOC4=O)c(F)c3n([C@H](c3ccccc3)C3CCOCC3)c2c1 [Example 60, 3-{6-Fluoro-3-[4-(^2H3)methyl-1-methyl-1H-1,2,3-triazol-5-yl]-5-[(S)-oxan-4-yl(phenyl)methyl]-5H-pyrido[3,2-b]indol-7-yl}-1,3-oxazolidin-2-one] | > 9.00
[2H]C([2H])([2H])c1nnn(C)c1-c1ccc2c3ncc(-c4c(C([2H])([2H])[2H])nnn4C)cc3n(C(c3ncccc3F)C3CCOCC3)c2c1 (stereo not shown) [Example 27, 2-({3,7-Bis[4-(^2H3)methyl-1-methyl-1H-1,2,3-triazol-5-yl]-5H-pyrido[3,2-b]indol-5-yl}(oxan-4-yl)methyl)-3-fluoropyridine] | > 8.30
[2H]C([2H])([2H])c1nnn(C)c1-c1cnc2c3c(N4CCCS4(=O)=O)ccc(S(C)(=O)=O)c3n([C@]([2H])(c3ccccc3F)C3CCOCC3)c2c1 [Example 37, 2-{5-[(S)-(2-Fluorophenyl)(oxan-4-yl)(^2H)methyl]-6-methanesulfonyl-3-[4-(^2H3)methyl-1-methyl-1H-1,2,3-triazol-5-yl]-5H-pyrido[3,2-b]indol-9-yl}-1λ^6,2-thiazolidine-1,1-dione] | > 8.30
Cc1nnn(C)c1-c1cnc2c3ccc(-c4cnn(C(C)C)c4)cc3n([C@H](c3ccccc3)C3CCOCC3)c2c1 [Example 16, 1,4-Dimethyl-5-{5-[(S)-oxan-4-yl(phenyl)methyl]-7-[1-(propan-2-yl)-1H-pyrazol-4-yl]-5H-pyrido[3,2-b]indol-3-yl}-1H-1,2,3-triazole] | > 8.30
[2H]C([2H])([2H])c1nnn(C)c1-c1cnc2c3ccc(N4CCC(S(C)(=O)=O)CC4)cc3n(C(c3ncccc3F)C3CCOCC3)c2c1 (stereo not shown) [Example 70, 3-Fluoro-2-{[7-(4-methanesulfonylpiperidin-1-yl)-3-[4-(^2H3)methyl-1-methyl-1H-1,2,3-triazol-5-yl]-5H-pyrido[3,2-b]indol-5-yl](oxan-4-yl)methyl}pyridine] | > 9.00
Cc1nnn(C)c1-c1cnc2c3cc(N4CCNCC4)ccc3n([C@H](c3ccccc3)C3CCOCC3)c2c1 [Example 13, 1-[3-(Dimethyl-1H-1,2,3-triazol-5-yl)-5-[(S)-oxan-4-yl(phenyl)methyl]-5H-pyrido[3,2-b]indol-8-yl]piperazine] | > 8.30
[2H]C([2H])([2H])c1nnn(C)c1-c1cnc2c3cc(N4CCS(=O)(=O)[C@H](C)C4)ccc3n([C@H](c3ccccc3F)C3CCOCC3)c2c1 [Example 51, (2R)-4-{5-[(S)-(2-Fluorophenyl)(oxan-4-yl)methyl]-3-[4-(^2Ha)methyl-1-methyl-1H-1,2,3-triazol-5-yl]-5H-pyrido[3,2-b]indol-8-yl}-2-methyl-1λ^6,4-thiomorpholine-1,1-dione] | > 9.00
Cc1nnn(C)c1-c1cnc2c3ccc(N4CCN(S(=O)(=O)N(C)C)CC4)cc3n([C@H](c3ccccc3)C3CCOCC3)c2c1 [Example 50, 4-[3-(Dimethyl-1H-1,2,3-triazol-5-yl)-5-[(S)-oxan-4-yl(phenyl)methyl]-5H-pyrido[3,2-b]indol-7-yl]-N,N-dimethylpiperazine-1-sulfonamide] | > 8.30
Cc1nnn(C)c1-c1cnc2c3cc(N4CCN(C5COC5)CC4)ccc3n([C@H](c3ccccc3)C3CCOCC3)c2c1 [Example 15, 1-[3-(Dimethyl-1H-1,2,3-triazol-5-yl)-5-[(S)-oxan-4-yl(phenyl)methyl]-5H-pyrido[3,2-b]indol-8-yl]-4-(oxetan-3-yl)piperazine] | > 8.30
Cc1nnn(C)c1-c1cnc2c3ccc(N4CCC(C(F)(F)F)CC4)cc3n(C(c3ccccc3)C3CCC(F)(F)CC3)c2c1 (single isomer, unassigned) [Example 77, 1-{5-[(4,4-Difluorocyclohexyl)(phenyl)methyl]-3-(dimethyl-1H-1,2,3-triazol-5-yl)-5H-pyrido[3,2-b]indol-7-yl}-4-(trifluoromethyl)piperidine] | > 9.00
Cc1nnn(C)c1-c1cnc2c3c(N4CCCCS4(=O)=O)ccc(S(C)(=O)=O)c3n([C@H](c3ccccc3)C3CCOCC3)c2c1 [Example 20, 2-[3-(Dimethyl-1H-1,2,3-triazol-5-yl)-6-methanesulfonyl-5-[(S)-oxan-4-yl(phenyl)methyl]-5H-pyrido[3,2-b]indol-9-yl]-1λ^6,2-thiazinane-1,1-dione] | > 9.00
[2H]C([2H])([2H])c1nnn(C)c1-c1cnc2c3ccc(N4CCN(S(C)(=O)=O)CC4)cc3n([C@H](c3ccccc3)C3CCOCC3)c2c1 [Example 46, 1-Methanesulfonyl-4-{3-[4-(^2H3)methyl-1-methyl-1H-1,2,3-triazol-5-yl]-5-[(S)-oxan-4-yl(phenyl)methyl]-5H-pyrido[3,2-b]indol-7-yl}piperazine] | > 9.00
Cc1nnn(C)c1-c1cnc2c3ccc(-c4nnn[nH]4)cc3n([C@H](c3ccccc3)C3CCOCC3)c2c1 [Example 11, 5-[3-(Dimethyl-1H-1,2,3-triazol-5-yl)-5-[(S)-oxan-4-yl(phenyl)methyl]-5H-pyrido[3,2-b]indol-7-yl]-1H-1,2,3,4-tetrazole] | > 9.00
[2H]C([2H])([2H])c1nnn(C)c1-c1cnc2c3ccc(C4(O)CCOC4)c(F)c3n([C@H](c3ccccc3)C3CCOCC3)c2c1 (stereo partly drawn) [Example 63, 3-{6-Fluoro-3-[4-(^2H3)methyl-1-methyl-1H-1,2,3-triazol-5-yl]-5-[(S)-oxan-4-yl(phenyl)methyl]-5H-pyrido[3,2-b]indol-7-yl}oxolan-3-ol] | > 9.00
[2H]C([2H])([2H])c1nnn(C)c1-c1cnc2c3c(N4CCCS4(=O)=O)ccc(S(C)(=O)=O)c3n([C@H](c3ccccc3F)C3CCOCC3)c2c1 [Example 34, 2-{5-[(S)-(2-Fluorophenyl)(oxan-4-yl)methyl]-6-methanesulfonyl-3-[4-(^2H3)methyl-1-methyl-1H-1,2,3-triazol-5-yl]-5H-pyrido[3,2-b]indol-9-yl}-1λ^6,2-thiazolidine-1,1-dione] | > 9.00
Cc1nnn(C)c1-c1cnc2c3ccc(N4CCC(F)(F)CC4)cc3n([C@H](c3ccccc3)C3CCOCC3)c2c1 [Example 71, 1-[3-(Dimethyl-1H-1,2,3-triazol-5-yl)-5-[(S)-oxan-4-yl(phenyl)methyl]-5H-pyrido[3,2-b]indol-7-yl]-4,4-difluoropiperidine] | > 9.00
[2H]C([2H])([2H])c1nnn(C)c1-c1cnc2c3ccc(C4(C)COC(=O)N4)c(F)c3n([C@H](c3ccccc3)C3CCOCC3)c2c1 (stereo partly drawn) [Example 56, 4-{6-Fluoro-3-[4-(^2H3)methyl-1-methyl-1H-1,2,3-triazol-5-yl]-5-[(S)-oxan-4-yl(phenyl)methyl]-5H-pyrido[3,2-b]indol-7-yl}-4-methyl-1,3-oxazolidin-2-one] | > 9.00
[2H]C([2H])([2H])c1nnn(C)c1-c1ccc2c3ncc(-c4c(C)nnn4C)cc3n([C@H](c3ccccc3)C3CCOCC3)c2c1 [Example 18, 5-[3-(Dimethyl-1H-1,2,3-triazol-5-yl)-5-[(S)-oxan-4-yl(phenyl)methyl]-5H-pyrido[3,2-b]indol-7-yl]-4-(^2H3)methyl-1-methyl-1H-1,2,3-triazole] | > 9.00
[2H]C([2H])([2H])c1nnn(C)c1-c1cnc2c3cc(N4CCN(S(C)(=O)=O)CC4)ccc3n([C@H](c3ccc(F)cc3)C3CCOCC3)c2c1 [Example 40, 1-{5-[(S)-(4-Fluorophenyl)(oxan-4-yl)methyl]-3-[4-(^2H3)methyl-1-methyl-1H-1,2,3-triazol-5-yl]-5H-pyrido[3,2-b]indol-8-yl}-4-methanesulfonylpiperazine] | > 9.00
